The record followed here is PubChem BioAssay AID1259321 (Sanford-Burnham Center for Chemical Genomics, 2017).

Active and inactive are the calls of the source.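 The calls were made as follows: active = half-maximal concentration for changing protein binding to DNA, from the fitted dose curve, below 10 micromolar; inactive = the rest.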

Nuclear receptor subfamily 1 group D member 1 (Homo sapiens), sequence (P20393 whole entry, looked up): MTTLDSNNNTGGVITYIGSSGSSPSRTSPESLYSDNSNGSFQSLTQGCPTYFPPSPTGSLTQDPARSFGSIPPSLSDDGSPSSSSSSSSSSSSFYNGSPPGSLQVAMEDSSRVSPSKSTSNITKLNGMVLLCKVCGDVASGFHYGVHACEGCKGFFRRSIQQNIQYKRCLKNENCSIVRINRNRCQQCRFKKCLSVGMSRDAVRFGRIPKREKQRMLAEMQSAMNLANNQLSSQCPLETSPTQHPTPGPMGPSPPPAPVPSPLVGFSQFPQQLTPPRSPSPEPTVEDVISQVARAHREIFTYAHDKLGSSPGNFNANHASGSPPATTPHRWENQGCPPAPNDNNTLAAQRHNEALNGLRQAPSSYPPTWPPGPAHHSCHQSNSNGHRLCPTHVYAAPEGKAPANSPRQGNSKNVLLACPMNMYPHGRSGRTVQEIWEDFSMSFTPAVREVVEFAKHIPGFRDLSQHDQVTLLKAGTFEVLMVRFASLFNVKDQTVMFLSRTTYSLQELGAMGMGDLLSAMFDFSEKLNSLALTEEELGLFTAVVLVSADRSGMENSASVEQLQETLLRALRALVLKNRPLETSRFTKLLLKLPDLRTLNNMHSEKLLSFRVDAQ

The test addresses Nuclear receptor subfamily 1 group D member 1 (Homo sapiens) (UniProt P20393). In words: Rev-erbα–DNA interaction modulators – biochemical, FITC-DNA, fluorescence polarization, dose response (AID 1259321). As to conditions: Rev-erb alpha-FITC-DNA binding.
Regarding `COCCCn1c(C(=O)NCCC2=CCCCC2)cc2c(=O)n3cccc(C)c3nc21`, the half-maximal inhibitory concentration (IC50) is 7.78 µM.
The same measure for `CCC(C)(C)c1ccc(OCCCC[n+]2cccc(C)c2)c(C(C)(C)CC)c1`: 4.39 µM.
In the case of `Cc1cc2c(s1)c1cnn(Cc3c(Cl)ccc(C)c3F)c(=O)c1n2C`, the IC50 result was “inactive”.
The same measure for `Cc1ccccc1NC(=O)c1sc(NC(=O)COc2ccccc2)c(C#N)c1C`: > 40 µM (inactive); for `CCN1/C(=C/c2ccc3cc(C)cc(C)c3[n+]2CC)Sc2cc(C)ccc21`: > 40 µM (inactive).
Turning to `COc1cc(/C=C2\SC(=O)N(CCNC(=O)c3sc4cc(F)ccc4c3Cl)C2=O)cc(OC)c1OC`, the IC50 was 4.87 µM.
The same measure for `COc1cccc(-n2nnnc2SCC(=O)Nc2ccc3c(c2)OCCO3)c1`: “inactive”.
As for `Cc1c(C#N)c(N)nc2c3c(sc12)NC(=O)CC3c1ccc(Cl)cc1` (stereo not drawn), the IC50 was > 40 µM (inactive).
In the case of `O=C(OCCN1C(=O)c2cccc3c(N4CCOCC4)ccc(c23)C1=O)c1ccccc1Cl`, the IC50 is 8.24 µM.
Next, `CC1(Cc2ccccc2OC(F)(F)F)C(=O)Nc2ccc(-c3ccsc3)cc21` (stereo not drawn): 1.7 µM; `Cc1nn(C)cc1N1C(=O)c2cccc3c(N)ccc(c23)C1=O`: “inactive”; `CCN1C(=O)/C(=C/c2ccc(N3CCCC3)cc2)NC1=S`: 1.14 µM.
`N=C1C(c2nc3ccccc3s2)=C(O)CN1NC(=O)c1c[nH]c2ccccc12`: the IC50 was 4.45 µM.
The same measure for `Cc1cc(-c2ccccc2)nc2oc3c(c12)NC(=O)CN(c1ccccc1)C3=O`: 0.378 µM; for `CCc1ccc(NC(=O)CSc2nnc(-c3n[nH]c4ccccc34)n2-c2ccccc2)cc1`: 2.64 µM.
Next, `O=[N+]([O-])c1ccc(N2CCCCCC2)c2nonc12`: > 40 µM (inactive); `C=CCn1c(SCCNC(C)=O)nc2cc(-c3ccccc3)sc2c1=O`: “inactive”.
Turning to `CCOC(=O)c1nn(-c2ccc(F)cc2)c(=O)cc1OCC(=O)Nc1ccc(F)c(F)c1`, the IC50 was > 40 µM (inactive).
Regarding `CCN1C(=O)/C(=C\N2CCN(c3ccc(F)cc3)CC2)SC1=S`, the IC50 was > 40 µM (inactive).
The same measure for `Cc1ccc(NC(=O)CSc2nc3ncc(Br)cc3[nH]2)cc1C`: > 40 µM (inactive); for `CCCCCCc1cc2cc(C(=O)Nc3ccccc3)c(=O)oc2cc1O`: > 40 µM (inactive).
In the case of `Cc1cc(-c2nnc3sc(-c4ccc(Cl)cc4Cl)nn23)n[nH]1`, the IC50 was > 40 µM (inactive).
Regarding `Cc1c(Cl)cccc1NC(=O)Cn1cc(C(F)(F)F)cc(Cl)c1=O`, the IC50 was > 40 µM (inactive).
The same measure for `CCOc1ccc2cc(C#N)c(SCC(=O)OC)nc2c1`: 3.74 µM; for `O=C(O)c1ccccc1C(c1ccccc1)c1ccccc1O` (stereo not drawn): “inactive”.
The same measure for `O=C(CSc1nc2ccccc2nc1N1CCCCC1)N1CCN(S(=O)(=O)c2cc(Cl)ccc2Cl)CC1`: 4.85 µM; for `O=C(Nc1ccc2c(c1)C(=O)NC2=O)c1ccc2ncsc2c1`: 2.29 µM; for `COc1ccccc1NC(=O)c1sc2ncn(Cc3cccc(C)c3)c(=O)c2c1C`: 0.38 µM.
Next, `O=C(CCc1c[nH]c2ccccc12)NCCc1ccc2c(c1)OCCO2`: 1.08 µM; `O=c1[nH]c(Cc2ccc(F)cc2)nc2scc(-c3ccc(F)cc3)c12`: 9.5 µM.
As to `Cc1cc(C(C)c2ccccc2)c(O)c(CN2CCOCC2)c1C` (stereo not drawn), the IC50 result was “inactive”.
Next, `CCN(CC)c1ccc(/C=C2\C(=O)NC(=S)N(C)C2=O)o1`: 4.36 µM; `CC(C)c1nc2sc3c(SCC(N)=O)ncnc3c2c2c1CCC2`: 3.43 µM.
Next, `COC(=O)c1sc2nc(-c3ccccc3)c3c(c2c1N)CCCC3`: “inactive”; `CC1(Cc2ccccc2Cl)C(=O)Nc2ccc(OC(F)(F)F)cc21` (stereo not drawn): 6.25 µM; `Cc1cc(C)cc(OCc2nc3ncc(Br)cc3[nH]2)c1`: 2.43 µM.
For `CN1C(=O)c2cccc3c(N)ccc(c23)C1=O`, the IC50 result was “inactive”.
Next, `COc1cc2c(cc1OC)CN(C(=O)CSc1nc(N)c(C#N)cc1C#N)CC2`: “inactive”; `CN1CCS/C1=C\C=C1/SC(=S)N(CC(=O)O)C1=O`: “inactive”.
Next, `O=c1c2ccccc2ncn1-c1ccc(Cl)c(Cl)c1`: > 40 µM (inactive); `COc1ccc(Cl)cc1NC(=O)c1[nH]c(C)c(C(C)=O)c1C`: 6.1 µM; `Cc1ccc(-n2c(N)c(C#N)c(-c3ccccc3)c(C#N)c2=O)cc1`: > 40 µM (inactive).
Next, `COc1ccc(-n2nc(C(=O)NCC(=O)Nc3ccccn3)c3ccccc3c2=O)cc1Cl`: 1.28 µM; `CCSc1nnc(-c2ccc(Cl)cc2)c2ccccc12`: 7.11 µM; `Cc1sc2nc(SC(C)C)nc(N)c2c1C`: 3.72 µM.
Turning to `COc1ccc(NC(=O)CSc2nc(-c3ccc(C)cc3)cc(C(F)(F)F)c2C#N)cc1`, the IC50 was 0.675 µM.
Next, `CSc1nnc2c3cc(F)ccc3n(Cc3ccccc3)c2n1`: 7.93 µM; `Cc1ccccc1OCC(=O)Nc1cccc2nsnc12`: 4.7 µM; `O=C(Cc1ccc(Cl)cc1)c1c[nH]c(C(=O)NCc2cccnc2)c1`: 2.51 µM.
With `COc1cc(-c2ccc3c(=O)c4ccccc4sc3c2)cc(OC)c1OC`, the IC50 is 2.86 µM.
Next, `CC(=O)c1ccc(S(=O)(=O)N2CCN(c3nc4c(C)c(C)ccc4cc3C#N)CC2)cc1`: 4.57 µM.
Take `CCCCN1C(=O)/C(=C/C=C2/CC(C)(C)CN2C)SC1=S`: the IC50 is > 40 µM (inactive).
Consider `Cn1c(=O)c(Nc2ccc(O)cc2)c2c3c(cccc31)C(=O)c1ccccc1-2`, for which the IC50 was 6.77 µM.
As to `CCCCCOc1ccc(NC(=O)CSc2cccc3cccnc23)cc1`, the IC50 was 0.678 µM.
Next, `CC1(C)Cc2c(c(N3CCCC3)nc3sc(C(=O)Nc4ccccc4)c(N)c23)CO1`: 3.37 µM; `Fc1ccc(CSc2ncnc3c2oc2ccccc23)cc1`: 6.81 µM; `CCN(CC)c1ccc(-c2c(C#N)c(N)nc(OC)c2C#N)cc1`: > 40 µM (inactive).
In the case of `COc1ccc2cc(C)c(SCC(=O)Nc3cc(C)on3)nc2c1`, the IC50 is > 40 µM (inactive).
As for `Cc1ccc2c(c1)c(/C=C/c1cc[n+](C)cc1)c(C)n2C`, the IC50 is > 40 µM (inactive).
Next, `CCc1nc(SCC(=O)Nc2ccc3c(c2)OCCO3)c2oc3ccccc3c2n1`: 1.3 µM; `COc1ccc(CC(=O)Nc2cc(C)c3c(=O)oc4ccccc4c3n2)cc1`: 4.42 µM; `O=C(COc1nc2ccccc2nc1N1CCOCC1)N1CCc2ccccc21`: > 40 µM (inactive).
Next, `O=C(CCn1c(SCC(=O)c2ccccc2)nc2ccccc2c1=O)NCc1ccc(F)cc1`: > 40 µM (inactive).
The same measure for `CC1(C)Cc2c(sc3c2c(N)nc(=S)n3Cc2ccc(Br)cc2)CO1`: “inactive”; for `Cc1[nH]nc2nc(SCC(=O)NC3CCCCC3)n(-c3ccc(Br)cc3)c(=N)c12`: 5.74 µM; for `Cc1cc(Br)ccc1NC(=O)c1sc2ncn(CC(=O)N3CCN(c4ccccn4)CC3)c(=O)c2c1C`: 5.34 µM.
For `COc1cc(/C=C(\C#N)c2nc3ccccc3o2)ccc1O`, the 50% inhibitory concentration (IC50) is 2.91 µM.
The same measure for `COCCn1c(=NC(=O)c2nc3ccccc3s2)sc2cc(S(C)(=O)=O)ccc21`: 4.6 µM.
